Data taken from patent US20250002450A1, “CATIONIC STEROID COMPOUNDS, METHOD OF OBTAINING THEREOF, FORMULATIONS COMPRISING THEREOF AND THEIR USES” (UNIVERSIDADE DO PORTO, priority 2021, published 2025).
In brackets after ≈: the same amount, converted by molar mass.

Assays:
P. aeruginosa 33b (PDR) = assay: Antibacterial MIC/MBC (broth microdilution); type: cell-based, Pseudomonas aeruginosa; settings: Pseudomonas aeruginosa, P. aeruginosa 33b (PDR); for MBC: read-out: MBC; for MIC: read-out: MIC
Excerpt: (§1) Twelve reference bacterial strains and nine MDR clinically relevant bacterial strains were used in this study. Gram-negative bacteria comprised reference strains E. coli ATCC 25922, K. pneumoniae ATCC 13883, Salmonella enterica serovar Typhimurium CECT 443, P. aeruginosa ATCC 27853, A. baumannii ATCC 19606, C. jejuni ATCC 33560 (ATCC—American Type Culture Collection; CECT—Colección Espanola de Cultivos Tipo); clinical isolates E. coli SA/2, an extended-spectrum β-lactamase (ESBL)-producing strain and P. aeruginosa 33b, a pan-drug-resistant isolate; and animal isolates C. jejuni P5/4, a ciprofloxacin-resistant strain, C. jejuni 4432, C. jejuni 4433, C. jejuni 4448, and E. coli 2252, a COL-resistant strain [42]. Gram-positive strains included S. aureus ATCC 29213, E. faecalis ATCC 29212, S. pyogenes ATCC 19615, and environmental isolates methicillin-resistant S. aureus (MRSA) 66/1 [43], and VAN-resistant enterococci (VRE) E. faecalis B3/101 [44]. Gram-negative fish pathogens Yersinia ruckeri ATCC 29473, Listonella anguillarum ATCC 1924, and Tenacibaculum maritimum ATCC 43397 were also included.
(§2) Strains were kept in Trypto-Casein Soy agar (TSA—Biokar Diagnostics, Allone, Beauvais, France) slants and, before each assay, were sub-cultured in Mueller-Hinton agar (MHA—Biokar Diagnostics, Allone, Beauvais, France). Y. ruckeri ATCC 29473 and L. anguillarum ATCC 1924 were kept in Nutrient Agar (Condalab, Madrid, Spain) and T. maritimum ATCC 43397 was kept in TMM agar (Condalab, Madrid, Spain), and were sub-cultured in the respective culture media before each assay. For S. pyogenes ATCC 19615, CAMHB was supplemented with 3.75% lysed horse blood (LBH—Oxoid, Basingstoke, England), whereas for C. jejuni it was supplemented with 2.5% LHB. Colony-forming unit counts of the inoculum were conducted to determine the initial inoculum size (which should be approximately 5×10^5 CFU/mL). Sterility and growth controls were included in each assay. The 96-well U-shaped untreated polystyrene microtiter plates were incubated for 20 h at 37 degrees C. (42 degrees C. for C. jejuni, in a microaerophilic atmosphere) and the minimal inhibitory concentration (MIC) was determined as the lowest concentration of compound that prevented visible growth. The minimal bactericidal concentration (MBC) was determined by spreading 100 μL of the content of the wells with no visible growth on MH plates. The MBC was determined as the lowest concentration of compound that killed 99.9% of the initial inoculum after overnight incubation at 37 degrees C. Two independent assays were performed for reference and MDR strains.
(§3) An initial screening of the antibacterial activity of the compounds was performed by the Kirby-Bauer disk diffusion method, as recommended by the Clinical and Laboratory Standards Institute (CLSI). Briefly, sterile 6 mm blank paper disks (Oxoid, Basingstoke, England) impregnated with 15 μg of each compound were placed on inoculated MH agar plates. A blank disk with dimethylsulfoxide (DMSO) was used as a negative control. MH inoculated plates were incubated for 18-20 h at 37 degrees C. At the end of incubation, the inhibition halos where measured. The MIC was used to determine the antibacterial activity of each compound, in accordance with the recommendations of the CLSI. Two-fold serial dilutions of the compounds were prepared in Mueller-Hinton Broth 2 (MHB2—Sigma-Aldrich, St. Louis, MO, USA) within the concentration range of 0.062-64 μg/mL. CTX ranging between 0.031-16 μg/mL was used as a control. Sterility and growth controls were included in each assay. Purity checks and colony counts of the inoculum suspensions were also performed in order to ensure that the final inoculum density closely approximates the intended number (5×10^5 CFU/mL). The MIC was determined as the lowest concentration of compound that inhibited growth of the bacteria. The MBC was assessed by spreading 10 μL of culture collected from wells showing no visible growth on MH agar plates. […]

[1] = tested on: Listonella anguilarum ATCC 1924; assay: Antibacterial MIC/MBC (broth microdilution); type: cell-based; settings: for MBC / MIC: Listonella anguilarum ATCC 1924; for MBC: read-out: MBC; for MIC: read-out: MIC; for antibacterial activity (in words): Listonella anguilarum
Outline: (§4)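 MIC = lowest compound concentration with no visible growth after 20 h at 37 degrees C in MHB2 microdilution (0.062-64 μg/mL; ~5×10^5 CFU/mL). MBC = lowest concentration giving 99.9% kill of the initial inoculum when no-growth wells were subcultured on MH agar overnight.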

[2] = tested on: Klebsiella pneumoniae ATCC 13883; assay: Antibacterial MIC/MBC (broth microdilution); type: cell-based; settings: ATCC13883, Klebsiella pneumoniae ATCC 13883; for MBC: read-out: MBC; for MIC: read-out: MIC
Outline: as §4

[3] = tested on: Yersinia ruckeri ATCC 29473; assay: Antibacterial MIC/MBC (broth microdilution); type: cell-based; settings: for MBC: ATCC29473, read-out: MBC; for MIC: ATCC29473, read-out: MIC
Outline: as §4

[4] = tested on: Salmonella enterica serovar Typhimurium CECT 443; assay: Antibacterial MIC/MBC (broth microdilution); type: cell-based; settings: for MBC: read-out: MBC; for MIC: read-out: MIC
Outline: as §4

[5] = tested on: Staphylococcus aureus ATCC 29213; assay: Antibacterial MIC/MBC (broth microdilution); type: cell-based; settings: for MBC: ATCC29213, read-out: MBC; for MIC: ATCC29213, read-out: MIC
Outline: as §4

[6] = tested on: Gram-negative and Gram-positive bacteria; assay: Antibacterial activity, whole strain panel; type: cell-based; settings: for spectrum of antibacterial activity (in words): all bacterial strains tested
Excerpt: as §1, §2, §3

| SMILES | MBC (P. aeruginosa 33b (PDR)) | MIC (P. aeruginosa 33b (PDR)) | MBC [1] | MIC [1] | MBC [2] | MIC [2] | MBC [3] | MIC [3] | MBC [4] | MIC [4] | MBC [5] | MIC [5] | antibacterial activity (in words) [1] | activity against Gram-negative bacteria (in words) [6] | spectrum of antibacterial activity (in words) [6] | antibacterial activity (in words) [3] | antibacterial activity (in words) [4] |
| --- | --- | --- | --- | --- | --- | --- | --- | --- | --- | --- | --- | --- | --- | --- | --- | --- | --- |
| C[C@H](CCC(=O)NCCNc1ccccc1)[C@H]1CC[C@H]2[C@@H]3CC[C@@H]4C[C@H](O)CC[C@]4(C)[C@H]3C[C@H](O)[C@]12C [Compound 8, (R)-4-((3R,5R,8R,9S,10S,12S,13R,14S,17R)-3,12-dihydroxy-10,13-dimethylhexadecahydro-1H-cyclopenta[a]phenanthren-17-yl)-N-(2-(phenylamino)ethyl)pentanamide] | > 64 µg/mL | > 64 µg/mL | > 64 µg/mL | > 64 µg/mL | > 64 µg/mL | > 64 µg/mL | > 64 µg/mL | > 64 µg/mL | > 64 µg/mL | > 64 µg/mL | > 64 µg/mL | 16 µg/mL (≈ 31.3 µM) |  |  |  |  |  |
| C[C@H](CCC(=O)N1CCNCC1)[C@H]1CC[C@H]2[C@@H]3CC[C@@H]4C[C@H](O)CC[C@]4(C)[C@H]3C[C@H](O)[C@]12C [Compound 9, (R)-4-((3R,5R,8R,9S,10S,12S,13R,14S,17R)-3,12-dihydroxy-10,13-dimethylhexadecahydro-1H-cyclopenta[a]phenanthren-17-yl)-1-(piperazin-1-yl) pentan-1-one] | > 64 µg/mL | > 64 µg/mL | 64 µg/mL (≈ 139 µM) | 64 µg/mL (≈ 139 µM) | > 64 µg/mL | > 64 µg/mL | > 64 µg/mL | > 64 µg/mL | 64 µg/mL (≈ 139 µM) | 64 µg/mL (≈ 139 µM) | 64 µg/mL (≈ 139 µM) | 64 µg/mL (≈ 139 µM) | active | exhibited activities | broad spectrum of activity |  |  |
| CCN(CC)CCNC(=O)CC[C@@H](C)[C@H]1CC[C@H]2[C@@H]3CC[C@@H]4C[C@H](O)CC[C@]4(C)[C@H]3C[C@H](O)[C@]12C [Compound 6, (R)—N-(2-(diethylamino)ethyl)-4-((3R,5R,8R,9S,10S,12S,13R,14S,17R)-3,12-dihydroxy-10,13-dimethylhexadecahydro-1H-cyclopenta[a]phenanthren-17-yl)pentanamide] | > 64 µg/mL | > 64 µg/mL | 64 µg/mL (≈ 130 µM) | 64 µg/mL (≈ 130 µM) | > 64 µg/mL | > 64 µg/mL | > 64 µg/mL | > 64 µg/mL | > 64 µg/mL | > 64 µg/mL | 64 µg/mL (≈ 130 µM) | 64 µg/mL (≈ 130 µM) | active | exhibited activities |  |  |  |
| C[C@H](CCC(=O)N1CCCCC1)[C@H]1CC[C@H]2[C@@H]3CC[C@@H]4C[C@H](O)CC[C@]4(C)[C@H]3C[C@H](O)[C@]12C [Compound 2, (R)-4-((3R,5R,8R,9S,10S,12S,13R,14S,17R)-3,12-dihydroxy-10,13-dimethylhexadecahydro-1H-cyclopenta[a]phenanthren-17-yl)-1-(piperidin-1-yl) pentan-1-one] | > 64 µg/mL | > 64 µg/mL | > 64 µg/mL | > 64 µg/mL | > 64 µg/mL | > 64 µg/mL | > 64 µg/mL | > 64 µg/mL | > 64 µg/mL | > 64 µg/mL | > 64 µg/mL | 32 µg/mL (≈ 69.6 µM) |  |  |  |  |  |
| C[C@H](CCC(=O)N1CCN(C(=O)OC(C)(C)C)CC1)[C@H]1CC[C@H]2[C@@H]3CC[C@@H]4C[C@H](O)CC[C@]4(C)[C@H]3C[C@H](O)[C@]12C [Compound 5, tert-butyl 4-((R)-4-((3R,5R,8R,9S,10S,12S,13R,14S,17R)-3,12-dihydroxy-10,13-dimethylhexadecahydro-1H-cyclopenta[a]phenanthren-17-yl)pentanoyl)piperazine-1-carboxylate] | > 64 µg/mL | > 64 µg/mL | > 64 µg/mL | > 64 µg/mL | > 64 µg/mL | > 64 µg/mL | > 64 µg/mL | > 64 µg/mL | > 64 µg/mL | > 64 µg/mL | > 64 µg/mL | 16 µg/mL (≈ 28.5 µM) |  |  |  |  |  |
| C[C@H](CCC(=O)N1CCOCC1)[C@H]1CC[C@H]2[C@@H]3CC[C@@H]4C[C@H](O)CC[C@]4(C)[C@H]3C[C@H](O)[C@]12C [Compound 3, (R)-4-((3R,5R,8R,9S,10S,12S,13R,14S,17R)-3,12-dihydroxy-10,13-dimethylhexadecahydro-1H-cyclopenta[a]phenanthren-17-yl)-1-morpholinopentan-1-one] | > 64 µg/mL | > 64 µg/mL | > 64 µg/mL | > 64 µg/mL | > 64 µg/mL | > 64 µg/mL | > 64 µg/mL | > 64 µg/mL | > 64 µg/mL | > 64 µg/mL | > 64 µg/mL | > 64 µg/mL |  |  |  |  |  |
| C[C@H](CCC(=O)N1CCN(C(=O)CC[C@H](C)[C@@H]2CC[C@@H]3[C@H]4CC[C@H]5C[C@@H](O)CC[C@@]5(C)[C@@H]4C[C@@H](O)[C@]32C)CC1)[C@H]1CC[C@H]2[C@@H]3CC[C@@H]4C[C@H](O)CC[C@]4(C)[C@H]3C[C@H](O)[C@]12C [Compound 4, (R)-4-((3R,5R,8R,9S,10S,12S,13R,14S,17R)-3,12-dihydroxy-10,13-dimethylhexadecahydro-1H-cyclopenta[a]phenanthren-17-yl)-1-(4-((S)-4-((3S,5S,8S,9R,10R,12R,13S,14R,17S)-3,12-dihydroxy-10,13-dimethylhexadecahydro-1H-cyclopenta[a]phenanthren-17-yl)pentanoyl)piperazin-1-yl) pentan-1-one] | > 64 µg/mL | > 64 µg/mL | 32 µg/mL (≈ 38.3 µM) | 32 µg/mL (≈ 38.3 µM) | > 64 µg/mL | > 64 µg/mL | 64 µg/mL (≈ 76.6 µM) | 64 µg/mL (≈ 76.6 µM) | 64 µg/mL (≈ 76.6 µM) | 64 µg/mL (≈ 76.6 µM) | > 64 µg/mL | 64 µg/mL (≈ 76.6 µM) | active | exhibited activities | active in eight of the tested strains | displayed antibacterial activity | exhibited antimicrobial activity |
